Data taken from patent US10633338B2, “Binding Function 3 (BF3) site compounds as therapeutics and methods for their use” (THE UNIVERSITY OF BRITISH COLUMBIA, priority 2014, dated 2020).
Read-outs that look alike come from different tables or passages of the source.

Experiments:
androgen receptor (AR) = target: T1, androgen receptor (AR) (Homo sapiens, UniProt P10275, T878A); test: eGFP cellular AR transcription assay; assay type: cell-based
T1 construct: stably transfected eGFP-expressing LNCaP human prostate cancer cells (LN-ARR2PB-eGFP) containing an androgen responsive probasin-derived promoter; endogenous in cells; host or cells: LNCaP (LN-ARR2PB-eGFP)
T1 sequence (P10275 1-920 T878A): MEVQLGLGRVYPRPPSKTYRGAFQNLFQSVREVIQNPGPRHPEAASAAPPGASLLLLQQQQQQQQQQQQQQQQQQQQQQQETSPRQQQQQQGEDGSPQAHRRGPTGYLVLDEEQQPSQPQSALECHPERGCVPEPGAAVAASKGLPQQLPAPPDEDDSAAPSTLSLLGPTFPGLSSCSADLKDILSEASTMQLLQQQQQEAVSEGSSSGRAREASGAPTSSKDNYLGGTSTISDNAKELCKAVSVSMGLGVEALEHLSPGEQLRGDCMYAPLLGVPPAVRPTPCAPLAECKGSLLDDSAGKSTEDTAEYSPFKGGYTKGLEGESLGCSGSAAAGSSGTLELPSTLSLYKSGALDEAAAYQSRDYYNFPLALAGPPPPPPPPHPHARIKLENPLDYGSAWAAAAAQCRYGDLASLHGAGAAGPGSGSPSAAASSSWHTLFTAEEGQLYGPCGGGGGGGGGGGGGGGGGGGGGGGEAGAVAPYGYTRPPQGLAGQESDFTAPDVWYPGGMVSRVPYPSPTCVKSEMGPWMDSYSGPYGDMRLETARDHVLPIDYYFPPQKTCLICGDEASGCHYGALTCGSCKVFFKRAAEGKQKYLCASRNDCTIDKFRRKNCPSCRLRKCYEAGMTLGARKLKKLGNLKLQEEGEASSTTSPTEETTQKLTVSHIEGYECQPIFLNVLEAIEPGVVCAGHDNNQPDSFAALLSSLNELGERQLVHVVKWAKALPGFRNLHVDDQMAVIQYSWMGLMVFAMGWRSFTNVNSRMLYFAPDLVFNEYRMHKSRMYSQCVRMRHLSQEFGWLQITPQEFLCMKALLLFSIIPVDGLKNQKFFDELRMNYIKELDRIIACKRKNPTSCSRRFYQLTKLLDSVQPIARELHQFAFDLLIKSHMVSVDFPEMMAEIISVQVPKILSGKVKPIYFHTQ
Procedure, shortened: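 AR transcriptional activity is read as eGFP expression from a probasin-derived androgen-responsive promoter. Compound titrated 0-100 μM in the presence of 0.1 nM R1881; 35,000 cells/well.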

PSA = test: Prostate Surface Antigen (PSA) assay, PSA excreted into the media; assay type: cell-based, human; settings: same plates as eGFP assay
Method: The evaluation of PSA excreted into the media was performed in parallel to the eGFP assay using the same plates (see above description). After the cells were incubated for 3 days 150 μl of the media was taken from each well, and added to 150 μl of PBS.

[1] = LN-ARR2PBeGFP LNCaP cells, 0.1 nM R1881, 3 days incubation, read-out: eGFP IC50
[2] = Homo sapiens, 72 h, PSA excreted into media, 3 days incubation, read-out: PSA IC50
[3] = LN-ARR2PBeGFP LNCaP cells, 0.1 nM R1881, 3 days incubation
[4] = PSA excreted into media, 3 days incubation
[5] = LN-ARR2PB-eGFP LNCaP cells, 0.1 nM R1881, 3 days, 0-100 μM compound, read-out: IC50 (eGFP)
[6] = Homo sapiens, 72 h, media after 3 days, read-out: IC50 (PSA)
[7] = PSA excreted into media, 3 days incubation, read-out: PSA IC50

IC50 (androgen receptor (AR); [1]) [nM]	IC50 (PSA; [2]) [nM]	SMILES	further results
480	160	c1ccc2c(c1)C[C@@H](c1c[nH]c3ccccc13)N2 [Compound 13163-A]	–
380	390	FC(F)(F)c1ccc(-c2c[nH]c3ccccc23)cc1 [Compound 13743]	–
–	–	Cc1cccc2c(-c3ccc4c(C#N)cccc4n3)c[nH]c12 [Compound 13598]	eGFP IC50 (androgen receptor (AR); [3]): Inactive; PSA IC50 (PSA; [4]): Inactive
700	773	Fc1cc2c(-c3ccc4cccc(F)c4n3)c[nH]c2c(F)c1F [Compound 13774]	–
–	–	Brc1cccc2c(-c3cnc4ccccc4c3)c[nH]c12 [13 653]	IC50 (androgen receptor (AR); [5]): 1130 nM; IC50 (PSA; [6]): 290 nM
1700	2570	Cc1cccc2c(C3Nc4ccccc4C34CCCCC4)c[nH]c12 (centres unmarked) [Compound 13549]	–
69	68	Fc1cccc2ccc(-c3c[nH]c4ccccc34)nc12 [Compound 13688]	–
–	–	Clc1cccc2nc(-c3c[nH]c4ccccc34)ccc12 [Compound 13706]	eGFP IC50 (androgen receptor (AR); [3]): Inactive; PSA IC50 (PSA; [4]): Inactive
2200	2520	COc1ccc2[nH]cc(C3Nc4ccccc4C3(C)C)c2c1 (centres unmarked) [Compound 13536]	–
–	–	NC(=O)c1cccc2nc(-c3c[nH]c4c(F)cc(F)cc34)ccc12 [Compound 13747]	eGFP IC50 (androgen receptor (AR); [3]): Inactive; PSA IC50 (PSA; [4]): Inactive
400	260	CC1(C)c2ccccc2NC1c1c[nH]c2cc(Cl)ccc12 (centres unmarked) [Compound 13521]	–
83	62	O=[N+]([O-])c1cccc2c(-c3ccc(Br)cc3)c[nH]c12 [Compound 13738]	–
2300	–	CC1(C)c2ccccc2NC1c1c[nH]c2ncccc12 (centres unmarked) [Compound 13560]	IC50 (PSA; [7]): 7500 nM
–	–	CC1(C)c2ccccc2NC1c1c[nH]c2ncccc12 (centres unmarked) [13 556]	IC50 (androgen receptor (AR); [5]): 2100 nM; IC50 (PSA; [6]): 2180 nM
3200	1730	Cc1ccc2[nH]cc(-c3ccc4ccccc4n3)c2c1 [Compound 13577]	–
4700	1600	CC1(C)c2cc(Br)ccc2NC1c1c[nH]c2ccc([N+](=O)[O-])cc12 (centres unmarked) [Compound 13530]	–
–	–	Cc1cccc2c(-c3ccc4c(O)cccc4n3)c[nH]c12 [Compound 13620]	eGFP IC50 (androgen receptor (AR); [3]): Inactive; PSA IC50 (PSA; [4]): Inactive
–	–	Cn1ccc2cc(-c3ccc4ccccc4c3)ccc21 [13 756]	IC50 (androgen receptor (AR); [5]): 2000 nM; IC50 (PSA; [6]): 1490 nM
–	–	Cc1cc(C)c2nc(-c3c[nH]c4c(C)c(F)ccc34)ccc2c1 [Compound 13636]	eGFP IC50 (androgen receptor (AR); [3]): Inactive; PSA IC50 (PSA; [4]): Inactive

IC50 (androgen receptor (AR); [1]) [nM]	IC50 (PSA; [2]) [nM]	SMILES	further results
–	–	CC1(C)C(c2c[nH]c3ncccc23)=Nc2ccccc21 [13 537]	IC50 (androgen receptor (AR); [5]): 700 nM; IC50 (PSA; [6]): 810 nM
–	–	N#Cc1cc(-c2c[nH]c3cc(F)c(F)cc23)nc2ccccc12 [Compound 13664]	eGFP IC50 (androgen receptor (AR); [3]): Inactive; PSA IC50 (PSA; [4]): Inactive
–	–	FC(F)(F)c1ccc(-c2c[nH]c3ccccc23)nc1 [13 741]	IC50 (androgen receptor (AR); [5]): 290 nM; IC50 (PSA; [6]): 290 nM
–	–	COc1ccc2[nH]cc(C3Nc4ccccc4C3(C)C)c2c1 (centres unmarked) [13 536]	IC50 (androgen receptor (AR); [5]): 2200 nM; IC50 (PSA; [6]): 2520 nM
–	–	O=[N+]([O-])c1cccc2c(-c3ccc4ccccc4c3)c[nH]c12 [13 702]	IC50 (androgen receptor (AR); [5]): 200 nM; IC50 (PSA; [6]): 140 nM
–	–	Cc1cccc2c(-c3ccc4c(Cl)cccc4n3)c[nH]c12 [Compound 13605]	eGFP IC50 (androgen receptor (AR); [3]): Inactive; PSA IC50 (PSA; [4]): Inactive
–	–	Fc1ccc(-c2c[nH]c3ncccc23)cc1 [13 740]	IC50 (androgen receptor (AR); [5]): 120 nM; IC50 (PSA; [6]): 120 nM
290	290	FC(F)(F)c1ccc(-c2c[nH]c3ccccc23)nc1 [Compound 13741]	–
110	120	Fc1cc2[nH]cc(-c3ccc4c(F)cccc4n3)c2cc1F [Compound 13693]	–
2500	1700	Cc1ccc(Cl)c2c(-c3ccc4ccccc4n3)c[nH]c12 [Compound 13681]	–
41	41	Fc1cccc2c(-c3ccc4cccc(Cl)c4n3)c[nH]c12 [Compound 13698]	–
200	230	CCc1cccc2c(-c3ccc4ccccc4n3)c[nH]c12 [Compound 13567]	–
1600	2100	CC1(C)c2ccccc2NC1c1c[nH]c2c(CO)cccc12 (centres unmarked) [Compound 13558]	–
3700	3580	Cc1[nH]c2ccccc2c1/N=N/c1ccccc1C(F)(F)F [Compound 13424]	–
–	–	c1ccc2cc(-c3c[nH]c4ccncc34)ccc2c1 [Compound 13685]	eGFP IC50 (androgen receptor (AR); [3]): Inactive; PSA IC50 (PSA; [4]): Inactive
–	–	Cc1ccc2[nH]cc(-c3ccc4ccccc4n3)c2c1 [13 577]	IC50 (androgen receptor (AR); [5]): 3200 nM; IC50 (PSA; [6]): 1730 nM
2500	1890	Cc1ccc2ccc(-c3c[nH]c4c(C)c(F)ccc34)nc2c1 [Compound 13660]	–
–	–	Brc1ccc(-c2c[nH]c3cccnc23)cc1 [13 737]	IC50 (androgen receptor (AR); [5]): 80 nM; IC50 (PSA; [6]): 37 nM
1250	929	Cc1ccc(C)c2c(-c3ccc4ccccc4n3)c[nH]c12 [Compound 13600]	–

IC50 (androgen receptor (AR); [1]) [nM]	IC50 (PSA; [2]) [nM]	SMILES	further results
–	–	Cc1cccc2c(C3=Nc4ccccc4CN3)c[nH]c12 [Compound 13604]	eGFP IC50 (androgen receptor (AR); [3]): Inactive; PSA IC50 (PSA; [4]): Inactive
700	–	Cc1ccc(/N=N/c2c[nH]c3ccccc23)c(C)c1 [Compound 13225]	IC50 (PSA; [7]): 900 nM
–	–	Fc1cc(Cl)cc2cc[nH]c12 [Compound 13720]	eGFP IC50 (androgen receptor (AR); [3]): Inactive; PSA IC50 (PSA; [4]): Inactive
3100	7090	CC1(C)c2ccccc2N(Cc2ccc(O)cc2)C1c1c[nH]c2ccccc12 (centres unmarked) [Compound 13525]	–
3000	1900	CC1(C)c2cc(Br)ccc2NC1c1c[nH]c2ccccc12 (centres unmarked) [Compound 13511]	–
–	–	O=[N+]([O-])c1cccc2c(-c3ccc(Br)cc3)c[nH]c12 [13 738]	IC50 (androgen receptor (AR); [5]): 83 nM; IC50 (PSA; [6]): 62 nM
1120	597	Fc1ccc2nc(-c3c[nH]c4cc(F)c(F)cc34)ccc2c1 [Compound 13614]	–
–	–	c1ccc2c(Cc3nn[nH]n3)c[nH]c2c1 [Compound 13700]	eGFP IC50 (androgen receptor (AR); [3]): Inactive; PSA IC50 (PSA; [4]): Inactive
70	67	Fc1ccc2ccc(-c3c[nH]c4c(Cl)cccc34)nc2c1 [Compound 13694]	–
–	–	Cc1cccc2cnn(-c3ccc4ccccc4n3)c12 [13 575]	IC50 (androgen receptor (AR); [5]): 3500 nM; IC50 (PSA; [6]): 1360 nM
261	247	CNC(=O)c1cccc2nc(-c3c[nH]c4cc(F)c(F)cc34)ccc12 [Compound 13645]	–
110	39	Cc1cccc2c(-c3cnc4ccccc4n3)c[nH]c12 [Compound 13585]	–
400	480	CNC(=O)c1cccc2nc(-c3c[nH]c4ccccc34)ccc12 [Compound 13691]	–
144	48	Fc1ccc2c(-c3ccc4ccccc4n3)c[nH]c2c1 [Compound 13576]	–
–	–	O=C(O)c1cccc2nc(-c3c[nH]c4c(Cl)cc(F)cc34)ccc12 [Compound 13673]	eGFP IC50 (androgen receptor (AR); [3]): Inactive; PSA IC50 (PSA; [4]): Inactive
5200	2400	O=C(c1cc2cc(F)ccc2[nH]1)N(Cc1ccco1)Cc1ccco1 [Compound 9125]	–
–	–	Fc1cc2[nH]cc(-c3ccc4c(Cl)cccc4n3)c2cc1F [Compound 13707]	eGFP IC50 (androgen receptor (AR); [3]): Inactive; PSA IC50 (PSA; [4]): Inactive
–	–	c1ccc2cc(-c3c[nH]c4cnccc34)ccc2c1 [13 675]	IC50 (androgen receptor (AR); [5]): 450 nM; IC50 (PSA; media after 3 days, read-out: IC50 (PSA)): 468 nM
2700	1650	Cc1cc(Cl)cc2c(-c3ccc4ccccc4n3)c[nH]c12 [Compound 13626]	–

SMILES	IC50 (androgen receptor (AR); [1]) [nM]	IC50 (PSA; [2]) [nM]	further results
c1ccc2nc(-c3n[nH]c4ccccc34)ccc2c1 [Compound 13579]	–	43	IC50 (androgen receptor (AR); eGFP IC50, LN-ARR2PBeGFP LNCaP cells, 0.1 nM R1881, 3 days incubation): 101 nM
